This is an account of results in US20080032953A1, “Method For Inhibiting Prebiotic Effect Of Food Proteins” (Royal Canin SA,, priority 2004, published 2008).

One experiment concerns anaerobic microflora. The experiment in a line: Growth of cat oral bacterial microflora in artificial saliva with protein, with or without phosphate: anaerobic count. Type of experiment: cell-based. As to conditions: MP9007 1%. How it is done: (§1) For all the experiments, the bacterial microflora of the oral cavity was removed, kept in a conservation medium, and then cultured in artificial saliva according to the following protocol:
(§2) Two male cats of “European” race, weighing approximately 5.50 kg, were anesthetized with 0.3 ml of a solution of medetomidine at 0.085 g/100 ml (Domitor, ND) and 0.26 ml of a solution of ketamine at […] (Imalgene 1000, ND).
(§3) In each animal thus immobilized, the saliva was sterilely suctioned with a pipette and the base of the teeth, the gums and the gum pockets were scraped with the back of a sterile scalpel.
(§4) All the samples were transferred and well-diluted in 100 ml of a sterile conservation medium (thiocolate resazurin medium from Biokar supplemented with 25% of glycerol). The conservation medium containing the samples was transferred into tubes with microbeads (Cryobilles, ND from AES). These tubes were then incubated for 6 hours in an incubator at 37° C., in a jar under CO2, before being frozen for subsequent use.
(§5) When subsequently used, each tube is thawed at ambient temperature and then incubated for 12 hours at 37° C., in a jar under CO2. The aerobic and anaerobic bacteria are counted according to the methods described hereinafter. The content of each tube is subsequently diluted with the sterile conservation medium so as to have an inoculum of 5000 (3.70 log10) revivable microorganisms in 0.2 ml.
The anaerobic microflora is cultured and then counted on a Schaedler medium (Biokar) supplemented with 5% of sterile defibrinated sheep blood, incubated at 37° C., in a jar under CO2, for 48 hours.
(§6) The basic artificial saliva is prepared according to table 31 on page 244 of the manual Biological Handbooks—Metabolism, compiled and edited by Philip L. Altman and Dorothy S. Dittmer, published by Federation of American Societies for Experimental Biology, 1968.
(§7) This basic saliva is supplemented with L-cysteine at a rate of 0.5 g/liter in order to lower its redox potential so as to be able to grow therein both the aerobic bacterial microflora and the anaerobic bacterial microflora. The whole will subsequently be referred to as “artificial saliva”.
(§8) The artificial saliva is dispensed into test tubes at a rate of 20 ml per tube. Each tube is supplemented or not supplemented with the protein, in the presence or absence of the phosphate to be tested. Each treatment is composed of two tubes.
(§9) The whole is autoclaved at 110° C. for 15 minutes.
(§10) Each tube is subsequently inoculated with 0.2 ml of inoculum described above. The whole is incubated in an incubator at 37° C., with shaking.
(§11) After 24, 48 or 72 hours of incubation, the aerobic flora and the anaerobic flora are counted according to the methods described above.
(§12) The result of each treatment is the mean of the counts of two test tubes, expressed as log10 of C.F.U. (Colony Forming Units) per ml of artificial saliva.

The next experiment deals with aerobic microflora. The experiment in a line: Growth of cat oral bacterial microflora in artificial saliva with protein, with or without phosphate: aerobic count. The class given is cell-based. The following applies: MP9007 1%. How it is done:
as §1, §2, §3, §4, §5
The aerobic microflora is cultured and then counted on a trypticase soy medium (Biokar) incubated at 37° C. for 48 hours.
as §6, §7, §8, §9, §10, §11, §12

[1] abbreviates: Experiment 2, trisodium pyrophosphate 5%.
Where [2] appears, read: Experiment 2, trisodium pyrophosphate 10%.
Where [3] appears, read: Experiment 2, trisodium phosphate at 5%, from 24 hours of incubation.
[4] abbreviates: Experiment 2, trisodium phosphate incorporated at 10%.
[5] abbreviates: Experiment 3, trisodium pyrophosphate 0.5%.

For the compound `O=P([O-])([O-])OP(=O)([O-])O.[Na+].[Na+].[Na+]` [Trisodium pyrophosphate, trisodium pyrophosphate], the “Anaerobic microflora CFU/ml, 24 hours” value with anaerobic microflora (setting [1]) is 6.88 log10 CFU/ml; in the experiment with anaerobic microflora (setting [2]) it was less than 4.00 log10 CFU/ml; with anaerobic microflora (setting [5]), 7.75 log10 CFU/ml. Moreover, the “Anaerobic microflora CFU/ml, 48 hours” value is given as 7.46 log10 CFU/ml in the experiment on anaerobic microflora (setting [1]) and less than 4.00 log10 CFU/ml in the experiment with anaerobic microflora (setting [2]). Besides, the “Anaerobic microflora CFU/ml, 72 hours” value in the experiment with anaerobic microflora (setting [1]) was 6.26 log10 CFU/ml; with anaerobic microflora (setting [2]), less than 4.00 log10 CFU/ml. In addition, the “Inhibitory effect on the prebiotic effect of MP9007, anaerobic microflora (in words)” value with anaerobic microflora (setting [3]) is listed as “very substantial”. For the same compound, the “Inhibition of the prebiotic effect of the MP9007 protein, anaerobic microflora (in words)” value in the experiment on anaerobic microflora (setting [4]) is “completely inhibited”. Besides, the results for the “Aerobic microflora CFU/ml, 24 hours” value with aerobic microflora (setting [1]), in the experiment on aerobic microflora (setting [2]) and in the experiment with aerobic microflora (setting [5]) were 6.88 log10 CFU/ml, less than 4.00 log10 CFU/ml and 7.75 log10 CFU/ml, respectively. For the same compound, the figures for the “Aerobic microflora CFU/ml, 48 hours” value in the experiment on aerobic microflora (setting [1]) and with aerobic microflora (setting [2]) were 7.56 log10 CFU/ml and 4.88 log10 CFU/ml, respectively. Moreover, the “Aerobic microflora CFU/ml, 72 hours” value is recorded as 7.69 log10 CFU/ml in the experiment with aerobic microflora (setting [1]) and less than 4.00 log10 CFU/ml in the experiment on aerobic microflora (setting [2]). For the same compound, the “Inhibitory effect on the prebiotic effect of MP9007, aerobic microflora (in words)” value in the experiment on aerobic microflora (setting [3]) was “very substantial”. Also, the “Inhibition of the prebiotic effect of the MP9007 protein, aerobic microflora (in words)” value in the experiment with aerobic microflora (setting [4]) is recorded as “completely inhibited”.
